Assay: xn = mol fraction of the nth substance listed
Conditions: 100 kPa

c1ccsc1 + CCCC[n+]1ccn(C)c1.O=S(=O)([N-]S(=O)(=O)C(F)(F)F)C(F)(F)F
viscosity [mPa·s]
Conditions	x1 = 0.089	x1 = 0.276	x1 = 0.336	x1 = 0.561	x1 = 0.77	x1 = 1
298.15 K	42.6	26.6	23.2	–	6.86	–
308.15 K	–	–	16.58	10.95	5.35	0.585
318.15 K	20.8	13.9	12.37	8.45	4.29	0.525
328.15 K	15.53	10.66	9.54	6.72	3.52	0.47

c1ccccc1 + CCCC[n+]1ccn(C)c1.O=S(=O)([O-])C(F)(F)F
x1 = 1
Conditions	viscosity [mPa·s]
298.15 K	0.605
328.15 K	0.363

c1ccccc1 + CC[n+]1ccn(C)c1.O=S(=O)([N-]S(=O)(=O)C(F)(F)F)C(F)(F)F
x1 = 1
Conditions	viscosity [mPa·s]
298.15 K	0.605
308.15 K	0.527
318.15 K	0.466
328.15 K	0.363

CCCC[n+]1ccn(C)c1.O=S(=O)([O-])C(F)(F)F + c1ccccc1
viscosity [mPa·s]
Conditions	x2 = 0	x2 = 0.122	x2 = 0.304	x2 = 0.353	x2 = 0.467	x2 = 0.573
298.15 K	–	–	37.2	32.8	19.8	–
308.15 K	56.4	–	–	22.6	14.22	9.37
318.15 K	38.3	29.2	18.23	16.33	–	–
328.15 K	27.3	21.2	–	12.3	–	5.71

CC[n+]1ccn(C)c1.O=S(=O)([N-]S(=O)(=O)C(F)(F)F)C(F)(F)F + c1ccccc1
viscosity [mPa·s]
Conditions	x2 = 0	x2 = 0.135	x2 = 0.339	x2 = 0.471	x2 = 0.492
298.15 K	33	–	–	11.41	10.4
308.15 K	23.7	18.44	11.75	8.65	7.98
318.15 K	17.69	14.02	9.11	–	6.31
328.15 K	–	10.93	–	5.5	5.16

CCCC[n+]1ccn(C)c1.O=S(=O)([N-]S(=O)(=O)C(F)(F)F)C(F)(F)F + c1ccsc1
x2 = 0
Conditions	viscosity [mPa·s]
298.15 K	51.32
308.15 K	34.4
318.15 K	24.4

Source: a compilation of properties of binary mixtures (doi:10.1016/j.molliq.2013.10.014)
